Assays:
[1] = molecular target: T1, HIV-1 reverse transcriptase (p51/p66 RT), RDDP activity (Human immunodeficiency virus type 1 group M subtype B, UniProt P03366); experiment: Inhibition of RNA dependent DNA polymerase activity of RT (RT RDDP); format: biochemical
T1 construct: 10 ng of p51/p66 heterodimeric RT per assay were used
Method: (§1) BBNH and Fe(III)-BBNH complex at various concentrations were examined for the ability to inhibit RNA dependent and DNA dependent DNA polymerase activities as well as RNAse H activity of HIV-1 reverse transcriptase (RT RDDP, RT DDDP, and RT RNAse H, respectively). To analyze RT RDDP and RT DDDP the following reaction mixture (100 μl total volume) was used: 50 mM Tris-HCl (pH 7.8), 60 mM KCl, 10 mM MgCl2, 10 ng of p51/p66 RT, 0.1-0.5 units of template/primer, and 0.5-25 μM [^3 H]dNTP. Aliquots of the test compounds dissolved in DMSO were added to the reaction mixtures, incubated for 10-20 min. at 37° C. and than quenched with 500 μl of cold 20 mM sodium pyrophosphate in 10% dichloroacetic acid. After 10 min. on ice, the samples were filtered on Whatman 934-AH glass fiber filters and washed with 10% dichloroacetic acid and ethanol, and the radioactivity was determined by liquid scintillation analysis. To analyze RT RNAse H the following reaction mixture (50 μl total volume) was used: 5OmM Tris-HCl (pH 8.0), 60 mM KCl, 8 mM MgCl2, and variable amounts of ([^3 H]rG)-poly(dC). Generally, 10 ng of p51/p66 heterodimeric RT per assay were used. Aliquots of the test compounds dissolved in DMSO were added to the reaction mixtures, incubated for 20 min. at 37° C. and than quenched by placing the tubes on ice followed by the addition of 100 μl of cold 7% perchloric acid. After 10 min. on ice, the samples were centrifuged at 12,000 g for 15 min. 100 μl of the supernatants were carefully removed, and the radioactivity was determined by liquid scintillation analysis.

[2] = tested on: HIV-1 replication in cells; experiment: Inhibition of HIV-1 replication in infected cells (general statement); format: cell-based
[3] = molecular target: T2, HIV-1 reverse transcriptase (p51/p66 RT), DDDP activity (Human immunodeficiency virus type 1 group M subtype B, UniProt P03366); experiment: Inhibition of DNA dependent DNA polymerase activity of RT (RT DDDP); format: biochemical
T2 construct: 10 ng of p51/p66 heterodimeric RT per assay were used
Method: as §1

HIV-1 RT = HIV-1 RT (Human immunodeficiency virus type 1 BH10, UniProt P03366); experiment: In vitro inhibition of HIV-1 RT enzymatic activities (RDDP, RNase H, DDDP); format: biochemical
[4] = Solubility of Fe(III)BBNH in organic solutions with various salts and pH; format: physicochemical
Method: The samples of Fe(III)BBNH (1 mg of each) were placed in 1 ml of following range of solvents:
The samples were intensively agitated during three hours at room temperature using a rotator. After that the samples were centrifuged at 10,000 g for 10 min. The supernatants (500 μl each) were separated and then dried by using a speed-vac centrifuge. Each sample was dissolved in 500 μl DMSO and the aliquots (50 μl each) were transferred to 96-well plate. The optical densities were determined at λ400 nm using a microplate reader. Fe(III)BBNH concentrations in the samples were then determined by using the calibration shown in Example 4A. Each concentration of Fe(III)BBNH was analyzed in triplicates.

[5] = Solubility of Fe(III)BBNH in water and organic solvents; format: physicochemical; settings: room temperature, 180 min
Method: One mg of Fe(III)BBNH was dissolved in 1 ml of dimethyl sulfoxide (DMSO). Aliquots of the solution were further diluted with DMSO to achieve the following final concentrations: […]. Each concentration point of was prepared in triplicates. The aliquots […] of the samples were transferred in 96-well plate. The optical densities (OD) at […] of all the samples were measured by using Microplate Reader.
The samples of Fe(III)BBNH (1 mg each) were placed in 1 ml of the following solvents:
The samples were intensively agitated during three hours at room temperature using a rotator. After that the samples were centrifuged at 10,000 g for 10 minutes. The supernatants (500 μl each) were separated and then were dried by using a speed-vac centrifuge. Each sample was then dissolved in 500 μl DMSO and aliquots (50 μl each) were transferred to 96-well plate. The optical densities were determined at λ400 nm for using microplate reader. Concentrations of the test compound in the samples were then determined by using the above shown calibration data. Each concentration of the test compound was measured in triplicates.

[6] = Water solubility of Fe(III)BBNH in various Pluronic solutions; format: physicochemical; settings: 180 min
Method: The samples of Fe(III)BBNH (1 mg of each) were placed in 1 ml of various water solutions of Pluronics. The samples were intensively agitated during three hours at room temperature using a rotator. The samples were then centrifuged at 10,000g for 10 min. The supernatants (500 μl each) were separated and then dried using a speed-vac centrifuge. Each sample was dissolved in 500 μl DMSO and aliquots (50 μl each) were transferred to 96-well plate. The optical densities were determined at λ400 nm using a microplate. The test compound concentrations in the samples were then determined by using the calibration shown in Example 4A. Each concentration of Fe(III)BBNH was analyzed in triplicates. Each concentration of Fe306 was measured in triplicates.

Structure (SMILES): CC(C)(C)c1ccc(C(=O)NN=Cc2c(O)ccc3ccccc23)cc1.C[O-].[Cl-].[Cl-].[Fe+3] [Fe(III)-BBNH]
- IC50 [1]: 400 ± 80 nM
- Ratio BBNH/Fe(III)-BBNH (IC50), RT RDDP [1]: 4.8
- antiviral activity against HIV-1 replication in cells [2]: no antiviral activity against HIV-1 replication in cells
- inhibition of HIV-1 replication in cells, water-organic formulations ([2]; water-organic formulations): very low activity
- IC50 [3]: 900 ± 300 nM
- Ratio BBNH/Fe(III)-BBNH (IC50), RT DDDP [3]: 13.5
- inhibitory activity against RT in vitro compared to the parent uncomplexed BBNH (HIV-1 RT): improved inhibitory activity compared to the parent uncomplexed BBNH
- Concentration of Fe306 dissolved in the sample ([4]; Acetonitrile:10% Ammonium Acetate (0.01 M) pH 3.0): 125.7 µg/mL
- Concentration of Fe306 dissolved in the sample ([4]; Acetonitrile:10% Ammonium Acetate (0.01 M) pH 5.0, 180 min): 223.9 µg/mL
- Concentration of Fe306 dissolved in the sample ([4]; Acetonitrile:10% Ammonium Acetate (0.01 M) pH 7.0, 180 min): 304.7 µg/mL
- Concentration of Fe306 dissolved in the sample ([4]; Acetonitrile:10% Ammonium Formate (0.01 M) pH 3.0): 172.9 µg/mL
- Concentration of Fe306 dissolved in the sample ([4]; Acetonitrile:10% Ammonium Formate (0.01 M) pH 5.0, 180 min): 233.6 µg/mL
- Concentration of Fe306 dissolved in the sample ([4]; Acetonitrile:10% Ammonium Formate (0.01 M) pH 6.2, 180 min): 200.1 µg/mL
- Concentration of Fe306 dissolved in the sample ([4]; Methanol:10% 0.01 M phosphate buffer pH 3.0): 14.4 µg/mL
- Concentration of Fe306 dissolved in the sample ([4]; Methanol:10% 0.01 M phosphate buffer pH 5.0, 180 min): 14.9 µg/mL
- Concentration of Fe306 dissolved in the sample ([4]; Methanol:10% Ammonium Acetate (0.01 M) pH 3.0): 26.2 µg/mL
- Concentration of Fe306 dissolved in the sample ([4]; Methanol:10% Ammonium Acetate (0.01 M) pH 5.0, 180 min): 76.6 µg/mL
- Concentration of Fe306 dissolved in the sample ([4]; Methanol:10% Ammonium Acetate (0.01 M) pH 7.0, 180 min): 94.4 µg/mL
- Concentration of Fe306 dissolved in the sample ([4]; Methanol:10% Ammonium Formate (0.01 M) pH 3.0): 50.9 µg/mL
- Concentration of Fe306 dissolved in the sample ([4]; Methanol:10% Ammonium Formate (0.01 M) pH 5.0, 180 min): 43.4 µg/mL
- Concentration of Fe306 dissolved in the sample ([4]; Methanol:10% Ammonium Formate (0.01 M) pH 6.2, 180 min): 31.2 µg/mL
- Solubility of Fe(III)BBNH dissolved in the sample ([5]; Acetonitrile 100%): 163.6 µg/mL
- Solubility of Fe(III)BBNH dissolved in the sample ([5]; Acetonitrile: 10% H2O): 491.4 µg/mL
- Solubility of Fe(III)BBNH dissolved in the sample ([5]; Acetonitrile: 20% H2O): 293.9 µg/mL
- Solubility of Fe(III)BBNH dissolved in the sample ([5]; DMFA 100%): 1000.2 µg/mL
- Solubility of Fe(III)BBNH dissolved in the sample ([5]; DMSO 100%): 1001.4 µg/mL
- Solubility of Fe(III)BBNH dissolved in the sample ([5]; Methanol 100%): 505.6 µg/mL
- Solubility of Fe(III)BBNH dissolved in the sample ([5]; Methanol: 10% H2O): 206.7 µg/mL
- Solubility of Fe(III)BBNH dissolved in the sample ([5]; Water 100%): < 0.001 µg/mL
- Solubility of Fe(III)BBNH ([6]; Pluronic F87 (2% w/v) in water): 992.5 µg/mL
- Solubility of Fe(III)BBNH ([6]; Pluronic F108 (2% w/v) in water): 86.5 µg/mL
- Solubility of Fe(III)BBNH ([6]; Pluronic F127 (2% w/v) in water): 113.6 µg/mL
- Solubility of Fe(III)BBNH ([6]; Pluronic L44 (2% w/v) in water): 986.8 µg/mL
- Solubility of Fe(III)BBNH ([6]; Pluronic L61 (1% w/v) in water): 3.5 µg/mL
- Solubility of Fe(III)BBNH ([6]; Pluronic L64 (2% w/v) in water): 996.6 µg/mL
- Solubility of Fe(III)BBNH ([6]; Pluronic L81 (2% w/v) in water): 175.3 µg/mL
- Solubility of Fe(III)BBNH ([6]; Pluronic P84 (1% w/v) in water): 987.2 µg/mL
- Solubility of Fe(III)BBNH ([6]; Pluronic P85 (1% w/v) in water): 998.3 µg/mL
- Solubility of Fe(III)BBNH ([6]; Pluronic P123 (2% w/v) in water): 125.7 µg/mL
